Laboratory results published in patent US7807138B2, “Biomarkers of metabolic responses to hepatic drugs” (Metabolon, Inc., priority 2006, dated 2010).
Marks after values point to notes of the source that are not given here.

Legend:
rat liver [1] = assay: LC-MS metabolomics of liver from rats dosed with clofibrate; type: in vivo; conditions: LCMS
Protocol: In one embodiment, the hepatotoxicant is clofibrate. Clofibrate or vehicle is administered orally (0, 50, 250 mg/kg/d) to groups of 6 rats and serum and livers are collected 6 and 24 h after either a single or 14 daily doses. Global biochemical profiles are determined by LC-MS and GC-MS and components highly perturbed by clofibrate exposure are identified by the methods described above. […] Rats (6 per group) were dosed by gavage with vehicle, 50 or 250 mg/kg clofibrate per day for 1 (single dose) or 14 days (repeated dose). These groups are referred to as “day 1” and ‘day 14 (d 1 and d14).” Liver and serum were collected at 6 and 24 h post-dosing in the day 1 and day 14. In detail, a single dose of clofibrate or vehicle was administered by gavage (0, 50 and 250 mg/kg) to groups of 18 male Sprague Dawley rats at 11 wks age. Six rats per dose group were euthanized at 6 and 24 h post-dose. Serum (for metabolomics and alanine aminotransferase (ALT), and aspartate aminotransferase (AST)), liver lobes (for histology), and frozen liver and urine (for metabolomics) were collected. Six rats per dose group were placed in metabolism cages for urine collection at −24-0 h, 0-6 h, 6-24 h and 24-48 h. These rats were removed from metabolism cages at 48 h post-dose, for blood and liver collection. The detailed study design is set forth in Chart 1. Samples were extracted with 20% acetonitrile, then were evaporated and re-constituted in distilled water. For the liver, the left lobe was selected for metabolomic analysis. LC-MS was performed in positive and negative electrospray ionization modes on Bruker time of flight (TOF) instruments, using Icoria™ proprietary HPLC methods and picking and alignment programs. Samples were randomly placed in wells on 96-well plates, keeping d 1 and d 14 samples on separate plates. Between 54 and 72 samples plus quality control samples were run on each plate. Pre- and post-flight instrument checks were carried out. Thereafter, data integrity checks were performed to detect any errors related to our Laboratory Information Management System (LIMS) system, labeling of samples, and missing or extraneous information. […] Metabolites associated with LC-MS components were putatively identified using our proprietary database of mammalian metabolites as well as external sources of metabolic information.

rat liver [2] = assay: GC-MS metabolomics of liver from rats dosed with clofibrate; type: in vivo; conditions: 250 mg/kg/d
Protocol: In one embodiment, the hepatotoxicant is clofibrate. Clofibrate or vehicle is administered orally (0, 50, 250 mg/kg/d) to groups of 6 rats and serum and livers are collected 6 and 24 h after either a single or 14 daily doses. Global biochemical profiles are determined by LC-MS and GC-MS and components highly perturbed by clofibrate exposure are identified by the methods described above. […] Rats (6 per group) were dosed by gavage with vehicle, 50 or 250 mg/kg clofibrate per day for 1 (single dose) or 14 days (repeated dose). These groups are referred to as “day 1” and ‘day 14 (d 1 and d14).” Liver and serum were collected at 6 and 24 h post-dosing in the day 1 and day 14. In detail, a single dose of clofibrate or vehicle was administered by gavage (0, 50 and 250 mg/kg) to groups of 18 male Sprague Dawley rats at 11 wks age. Six rats per dose group were euthanized at 6 and 24 h post-dose. Serum (for metabolomics and alanine aminotransferase (ALT), and aspartate aminotransferase (AST)), liver lobes (for histology), and frozen liver and urine (for metabolomics) were collected. Six rats per dose group were placed in metabolism cages for urine collection at −24-0 h, 0-6 h, 6-24 h and 24-48 h. These rats were removed from metabolism cages at 48 h post-dose, for blood and liver collection. The detailed study design is set forth in Chart 1. For GC-MS, liver was extracted with CHCl3:MeOH mixtures. Organic residue was derivitized with BSTFA and dried aqueous residues were derivitized with methoxyamine HCl/BSTFA. Samples were injected with 10:1 split into an Agilent 6890 gas chromatograph. A Leco Pegasus III TOFMS was used. Ions were generated at 70 eV with 3.2 mA ionization current; 25 spectra/s were recorded for 60-800 m/z. Acceleration voltage activated after 180 solvent delay. Detector voltage: 1750 V. Data were processed with Leco ChromaTOF software. Automatic peak detection and mass spectrum deconvolution were performed using 1.33 s peak width. Peaks with S/N less than 20 were rejected. Component identification was accomplished with the NIST 98' MS library and, in some cases, verified with standards. Components with similarity greater than 600 were used for analysis.

rats = assay: Liver enzymes ALT and AST in serum; type: in vivo, rat; conditions: 50 or 250 mg/kg, any groups
Protocol: (§1) In detail, a single dose of clofibrate or vehicle was administered by gavage (0, 50 and 250 mg/kg) to groups of 18 male Sprague Dawley rats at 11 wks age. Six rats per dose group were euthanized at 6 and 24 h post-dose. Serum (for metabolomics and alanine aminotransferase (ALT), and aspartate aminotransferase (AST)), liver lobes (for histology), and frozen liver and urine (for metabolomics) were collected. Six rats per dose group were placed in metabolism cages for urine collection at −24-0 h, 0-6 h, 6-24 h and 24-48 h. These rats were removed from metabolism cages at 48 h post-dose, for blood and liver collection. The detailed study design is set forth in Chart 1.

rat liver [3] = assay: Liver histology; type: in vivo
Protocol: as §1, with “In detail, a single dose of clofibrate or vehicle was administered by gavage (0, 50 and 250 mg/kg) to groups of 18 male Sprague Dawley rats at 11 wks age.” left out

rat liver [4] = conditions: rats, cited from earlier work
[5] = 50 mg/kg/d for 14 days, 6 H after administration
[6] = 50 mg/kg/d for 14 days, 24 H after administration
[7] = 250 mg/kg/d for 14 days, 6 H after administration
[8] = 250 mg/kg/d for 14 days, 24 H after administration

Clofibrate metabolite Propanoic acid, 2-(4-chlorophenoxy)-2-methyl- in liver (rat liver [2]; cell spans the time columns): (not present in control)
SMILES: CCOC(=O)C(C)(C)Oc1ccc(Cl)cc1 [Clofibrate, ethyl-p-chloro-phenoxyisobutyrate]
D-Glycerate fold change relative to control (rat liver [1]; [5]): 1.3 fold change
Glycero-3-phosphoethanolamine fold change relative to control (rat liver [1]; [5]): −3.2 fold change
Threonate fold change relative to control (rat liver [1]; [5]): 1.3 fold change
Ornithine fold change relative to control (rat liver [1]; [6]): 1.84 fold change
Threonate fold change relative to control (rat liver [1]; [6]): −1.4 fold change
Various bile acids fold change relative to control (rat liver [1]; [6]): 1.3 fold change
Creatine fold change relative to control (rat liver [1]; [7]): 1.4 fold change
D-Glycerate fold change relative to control (rat liver [1]; [7]): 1.2 fold change
Glutathione fold change relative to control (rat liver [1]; [7]): −1.5 fold change
Glycero-3-phosphoethanolamine fold change relative to control (rat liver [1]; [7]): −7.7 fold change
Hypotaurine fold change relative to control (rat liver [1]; [7]): 1.3 fold change
Ornithine fold change relative to control (rat liver [1]; [7]): 2.3-5.4 fold change
Serine fold change relative to control (rat liver [1]; [7]): 1.3-1.7 fold change
Various bile acids fold change relative to control (rat liver [1]; [7]): 1.4 fold change
Creatine fold change relative to control (rat liver [1]; [8]): 2.1 fold change
Hypotaurine fold change relative to control (rat liver [1]; [8]): 1.3 fold change
Ornithine fold change relative to control (rat liver [1]; [8]): 2.8-10.6 fold change
Serine fold change relative to control (rat liver [1]; [8]): 1.7 fold change
1-Mono linoleoylglycerol fold change (rat liver [2]; DAY 1, 6 H): 1.11*** fold change
1-Mono oleoylglycerol fold change (rat liver [2]; DAY 1, 6 H): 0.98* fold change
1-Mono palmitoylglycerol fold change (rat liver [2]; DAY 1, 6 H): 0.91** fold change
2-Mono oleoylglycerol fold change (rat liver [2]; DAY 1, 6 H): 1.12*** fold change
Cholesterol fold change (rat liver [2]; DAY 1, 6 H): 1.34*** fold change
Glucose (aq) fold change (rat liver [2]; DAY 1, 6 H): 0.29* fold change
Glycine fold change (rat liver [2]; DAY 1, 6 H): 2.69** fold change
Lactic acid fold change (rat liver [2]; DAY 1, 6 H): 1.56** fold change
Linoleic acid fold change (rat liver [2]; DAY 1, 6 H): 0.97* fold change
Palmitate fold change (rat liver [2]; DAY 1, 6 H): 0.95*** fold change
Stearate fold change (rat liver [2]; DAY 1, 6 H): 1.07* fold change
1-Mono stearoylglycerol fold change (rat liver [2]; DAY 1, 24 H): 17.14** fold change
Glycerol 1(3)-phosphate fold change (rat liver [2]; DAY 1, 24 H): 2.56* fold change
Glycine fold change (rat liver [2]; DAY 1, 24 H): 3.42* fold change
L-Aspartic acid fold change (rat liver [2]; DAY 1, 24 H): 27.88*** fold change
Lactic acid fold change (rat liver [2]; DAY 1, 24 H): 4.41* fold change
Succinic acid (Butanedioic acid) fold change (rat liver [2]; DAY 1, 24 H): 17.05** fold change
l-Alanine fold change (rat liver [2]; DAY 1, 24 H): 4.74* fold change
1-Mono palmitoylglycerol fold change (rat liver [2]; DAY 14, 6 H): 0.04** fold change
1-Mono stearoylglycerol fold change (rat liver [2]; DAY 14, 6 H): 0.22** fold change
2-Mono stearoylglycerol fold change (rat liver [2]; DAY 14, 6 H): 0.41* fold change
Arachidonic acid fold change (rat liver [2]; DAY 14, 6 H): 0.22*** fold change
Cholesterol fold change (rat liver [2]; DAY 14, 6 H): 1.87** fold change
Malate fold change (rat liver [2]; DAY 14, 6 H): 0.1** fold change
Palmitate fold change (rat liver [2]; DAY 14, 6 H): 0.72** fold change
β-Sitosterol fold change (rat liver [2]; DAY 14, 6 H): 0.37** fold change
Cholesterol fold change (rat liver [2]; DAY 14, 24 H): 0.69** fold change
Docosahexaenoic acid fold change (rat liver [2]; DAY 14, 24 H): 0.58* fold change
Glucose (aq) fold change (rat liver [2]; DAY 14, 24 H): 0.39** fold change
Malate fold change (rat liver [2]; DAY 14, 24 H): 0.33** fold change
β-Sitosterol fold change (rat liver [2]; DAY 14, 24 H): 0.46* fold change
ALT (rats): not elevated
AST (rats): not elevated
Histology: hepatocellular cytologic alterations (rat liver [3]; after 14 doses at 250 mg/kg/day, all time points): hepatocellular cytologic alterations (indicating loss of glycogen and eosinophilic granular cytoplasm) were noted at all time points
Histology: hepatocellular mitotic figures (rat liver [3]; after a single dose, 50 to 250-mg/kg): dose related increase and severity of hepatocellular mitotic figures
Microscopic changes to liver (rat liver [4]; 24 h after a single exposure): no microscopic changes to liver
Liver histopathology (rat liver [4]; after 2 weeks): induced hypertrophy
